Test results from ChEMBL document CHEMBL1201862, “PubChem BioAssay data set” (2004).
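All cell lines were grown in 96-well plates and treated with compound for 48 hours. GI50 is the concentration that inhibits growth by half.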 Active and inactive are the calls of the source. Cut-off read from the data, not from the text of the source: active = GI50 up to about 1.1 µM and inactive = higher. Square brackets hold non-standard residues; d marks the D form. Peptide text beside a SMILES is read from it. * marks the point of attachment. Boc = CC(C)(C)OC(=O)*; Lac = C[CH](O)C(=O)O; OBn = c1ccc(CO*)cc1

How the values were obtained:
Experiment in all cases: NCI anticancer screen, dose series, 48 h
[1] = test system: HL-60
[2] = test system: MCF7
[3] = test system: MOLT-4
[4] = test system: RXF 393
[5] = test system: HCT-15
[6] = test system: OVCAR-8
[7] = test system: KM12
[8] = test system: A498
[9] = test system: Malme-3M
[10] = test system: HOP-92
[11] = test system: UACC-257
[12] = test system: HCT-116
[13] = test system: NCI-H23
[14] = test system: CCRF-CEM
[15] = test system: SF-539
[16] = test system: SF-295
[17] = test system: EKVX
[18] = test system: HCC 2998
[19] = test system: TK-10
[20] = test system: SR

O=C1NC(O)CCN1C1OC(CO)C(O)C1O (stereo not given)
GI50 [1]: > 250 µM (inactive) | GI50 [2]: > 250 µM (inactive) | GI50 [3]: > 250 µM (inactive) | GI50 [4]: > 250 µM (inactive) | GI50 [5]: > 250 µM | GI50 [6]: > 250 µM (inactive) | GI50 [7]: > 250 µM (inactive) | GI50 [8]: > 211 µM (inactive) | GI50 [9]: > 250 µM (inactive) | GI50 [10]: > 250 µM (inactive) | GI50 [11]: > 250 µM (inactive) | GI50 [12]: > 141 µM (inactive) | GI50 [13]: > 250 µM (inactive) | GI50 [14]: > 250 µM (inactive) | GI50 [15]: > 250 µM (inactive) | GI50 [16]: > 250 µM (inactive) | GI50 [17]: > 250 µM (inactive) | GI50 [18]: > 250 µM (inactive)

COP(=O)(OC)C(N)Cc1c[nH]c2ccccc12 (stereo not given)
GI50 [2]: > 100 µM (inactive) | GI50 [3]: > 100 µM (inactive) | GI50 [5]: > 100 µM | GI50 [6]: > 100 µM (inactive) | GI50 [8]: > 100 µM (inactive) | GI50 [11]: > 100 µM (inactive) | GI50 [12]: > 100 µM (inactive) | GI50 [13]: > 100 µM (inactive) | GI50 [16]: > 100 µM (inactive) | GI50 [18]: > 100 µM (inactive) | GI50 [19]: > 100 µM (inactive)

CC(OC(=O)C(Cc1ccccc1)NC(=O)C(Cc1ccccc1)NC(=O)OC(C)(C)C)C(=O)OCc1ccccc1 (stereo not drawn) (Boc-Phe-Phe-[Lac]-OBn; configuration not given here)
GI50 [1]: > 100 µM (inactive) | GI50 [2]: 17.8 µM (inactive) | GI50 [3]: > 100 µM (inactive) | GI50 [4]: > 100 µM (inactive) | GI50 [5]: > 100 µM | GI50 [6]: > 100 µM (inactive) | GI50 [7]: > 100 µM (inactive) | GI50 [9]: > 100 µM (inactive) | GI50 [10]: > 100 µM (inactive) | GI50 [12]: > 100 µM (inactive) | GI50 [13]: > 100 µM (inactive) | GI50 [14]: > 100 µM (inactive) | GI50 [16]: > 100 µM (inactive) | GI50 [18]: > 100 µM (inactive) | GI50 [20]: > 100 µM (inactive)

Cn1c(=O)c(C#N)c(O)c2cc3ccccc3nc21
GI50 [1]: > 100 µM (inactive) | GI50 [3]: > 100 µM (inactive) | GI50 [4]: > 100 µM (inactive) | GI50 [5]: > 100 µM | GI50 [6]: > 100 µM (inactive) | GI50 [7]: > 100 µM (inactive) | GI50 [9]: > 100 µM (inactive) | GI50 [10]: > 100 µM (inactive) | GI50 [11]: > 100 µM (inactive) | GI50 [12]: > 100 µM (inactive) | GI50 [13]: > 100 µM (inactive) | GI50 [14]: > 100 µM (inactive) | GI50 [15]: > 100 µM (inactive) | GI50 [16]: > 100 µM (inactive) | GI50 [17]: > 100 µM (inactive) | GI50 [18]: > 100 µM (inactive) | GI50 [20]: > 100 µM (inactive) | GI50 [19]: > 100 µM (inactive)

Nc1ccccc1C(=O)N/N=C1\C(=O)Nc2ccccc21
GI50 [2]: > 100 µM (inactive) | GI50 [3]: > 100 µM (inactive) | GI50 [4]: 68.7 µM (inactive) | GI50 [5]: > 100 µM | GI50 [6]: > 100 µM (inactive) | GI50 [7]: 88.5 µM (inactive) | GI50 [8]: 33.2 µM (inactive) | GI50 [9]: > 100 µM (inactive) | GI50 [11]: > 100 µM (inactive) | GI50 [12]: > 100 µM (inactive) | GI50 [13]: 56.2 µM (inactive) | GI50 [14]: > 100 µM (inactive) | GI50 [15]: > 100 µM (inactive) | GI50 [16]: > 100 µM (inactive) | GI50 [17]: > 100 µM (inactive) | GI50 [18]: > 100 µM (inactive) | GI50 [20]: > 100 µM (inactive) | GI50 [19]: 32.5 µM (inactive)

CC1CC(C[N+](=O)[O-])CC2(C1)OCCO2 (stereo not given)
GI50 [1]: > 100 µM (inactive) | GI50 [3]: > 100 µM (inactive) | GI50 [4]: > 100 µM (inactive) | GI50 [5]: > 100 µM | GI50 [6]: > 100 µM (inactive) | GI50 [7]: > 100 µM (inactive) | GI50 [8]: > 100 µM (inactive) | GI50 [9]: > 100 µM (inactive) | GI50 [11]: > 100 µM (inactive) | GI50 [12]: > 100 µM (inactive) | GI50 [14]: > 100 µM (inactive) | GI50 [15]: > 100 µM (inactive) | GI50 [18]: > 100 µM (inactive) | GI50 [20]: > 100 µM (inactive) | GI50 [19]: > 100 µM (inactive)

Cc1cc(=O)oc2c1cc1ccc3cccc4ccc2c1c34
GI50 [1]: > 100 µM (inactive) | GI50 [3]: > 100 µM (inactive) | GI50 [5]: > 100 µM | GI50 [6]: > 100 µM (inactive) | GI50 [8]: > 100 µM (inactive) | GI50 [9]: > 100 µM (inactive) | GI50 [10]: 31.5 µM (inactive) | GI50 [13]: > 100 µM (inactive) | GI50 [14]: > 100 µM (inactive) | GI50 [15]: 58.6 µM (inactive) | GI50 [16]: 40.4 µM (inactive) | GI50 [17]: > 100 µM (inactive) | GI50 [19]: > 100 µM (inactive)

Cc1n[nH]c(CC#N)n1
GI50 [2]: > 100 µM (inactive) | GI50 [3]: > 100 µM (inactive) | GI50 [4]: > 100 µM (inactive) | GI50 [5]: > 100 µM | GI50 [6]: > 100 µM (inactive) | GI50 [7]: > 100 µM (inactive) | GI50 [10]: > 100 µM (inactive) | GI50 [11]: > 100 µM (inactive) | GI50 [12]: > 100 µM (inactive) | GI50 [13]: > 100 µM (inactive) | GI50 [14]: > 100 µM (inactive) | GI50 [15]: > 100 µM (inactive) | GI50 [16]: > 100 µM (inactive) | GI50 [17]: > 100 µM (inactive) | GI50 [18]: > 100 µM (inactive) | GI50 [20]: > 100 µM (inactive) | GI50 [19]: > 100 µM (inactive)
